Results from patent publication US20180298340A1, “SYSTEMS FOR DETECTING, MONITORING OR TREATING DISEASES OR CONDITIONS USING ENGINEERED CELLS AND METHODS FOR MAKING AND USING THEM” (The Regents of the University of California, priority 2015, published 2018).

Assays:
YAP/TAZ [1] = test: MRCS-eGFP on firm substrate treated with mechano-sensing inhibitors (immunofluorescence); type: cell-based, human; conditions: firm (~40 kPa) poly-acrylamide; blebbistatin (5004 [sic]), 10 μM ML-7, 20 μM PF228
Method: FIG. 16A-L illustrate images of exemplary MRCS-eGFP showing that MRCS is stiffness specific in vitro. MRCS was plated on firm (approximately 40 kPa) poly-acrylamide and treated with (FIG. 16A, FIG. 16D, FIG. 16G, FIG. 16J) […] blebbistatin and (FIG. 16B, E, FIG. 16H, FIG. 16K) 10 μM ML-7 (myosin light-chain kinase inhibitors) as well as (FIG. 16C, FIG. 16F, FIG. 16I, FIG. 16K) 20 μM PF228 (focal adhesion kinase inhibitor). […] Scale bar=50 μm.
MRCS-eGFP sensing was also shown to be reversibly stiffness-dependent (FIG. 16). Cells plated on stiff, activating substrate (approximately 40 kPa) were deactivated with the addition of blebbistatin and ML-7 (myosin light-chain kinase inhibitors) or PF228 (a focal adhesion kinase inhibitor). This was seen from the lack of GFP fluorescence (FIG. 16A-C) and from the localization of YAP/TAZ to the cytoplasm (FIG. 16D-F). Real-time RT-PCR was performed on the seeded MRCS-eGFP cells to quantify relative mRNA expression levels of eGFP and two downstream factors of YAP/TAZ, CTGF (Connective Tissue Growth Factor) and ANKRDI (ANKyrin Repeat Domain-containing protein 1) (FIG. 17). […] N-MSC plated on stiff substrate was a control.

YAP/TAZ [2] = test: MRCS-Luc luciferase activity on substrates with different stiffness; type: cell-based, human; conditions: compared to uninhibited cells on stiff, activating substrates
Method: FIG. 18 graphically illustrates data showing that MRCS-luciferase (MRCS-Luc) is stiffness specific in vitro. MRCS-Luc was seeded on substrates with different stiffness. […] D-Luciferin: 150 μg/ml in MSC growth medium. *P<0.05, **P<0.01.
The MRCS with engineered reporter-Luc construct (MRCS-Luc) was also found to be stiffness specific in vitro, similar to MRCS-eGFP (FIG. 18). […] C-MSC constitutively expressing luciferase served as a positive control, and N-MSC with no luciferase activity served as a negative control.

YAP/TAZ [3] = test: MRCS-CD on firm substrate treated with mechano-sensing inhibitors; type: cell-based, human; conditions: firm (~40 kPa) poly-acrylamide; 50 μM blebbistatin, 10 μM ML-7, 20 μM PF228
Method: FIG. 20 graphically illustrates data showing that MRCS-CD is stiffness specific in vitro based on stiffness inhibitor studies. MRCS was plated on firm (approximately 40 kPa) poly-acrylamide and treated with (A,D,G,J) 50 μM blebbistatin and (B,E,H,K) 10 μM ML-7 (myosin light-chain kinase inhibitors) as well as (C,F,I,K) 20 μM PF228 (focal adhesion kinase inhibitor). […] Scale bar=50 μm.
MRCS-CD sensing was also shown to be reversibly stiffness-dependent (FIG. 20). Cells plated on stiff, activating substrate (approximately 40 kPa) were deactivated with the addition of blebbistatin and ML-7 (myosin light-chain kinase inhibitors) or PF228 (a focal adhesion kinase inhibitor). This was seen from the lack of GFP fluorescence (FIG. 20A-C) and from the localization of YAP/TAZ to the cytoplasm (FIG. 20D-F).

[4] = cited from earlier work

| Compound | YAP/TAZ localization in MRCS with inhibitor (YAP/TAZ [1]) | eGFP of MRCS with inhibitor (YAP/TAZ [1]) | luciferase expression levels of MRCS-Luc with inhibitor (YAP/TAZ [2]) | YAP/TAZ localization in MRCS-CD with inhibitor (YAP/TAZ [3]) | cytosine deaminase (CD) of MRCS with inhibitor (YAP/TAZ [3]) | plasma half-life [4] |
| --- | --- | --- | --- | --- | --- | --- |
| O=S(=O)(c1cccc2c(I)cccc12)N1CCCNCC1 [ML-7] | in cytoplasm | turned off | significantly lowered | in cytoplasm | turned off | – |
| CS(=O)(=O)c1cccc(CNc2nc(Nc3ccc4c(c3)CCC(=O)N4)ncc2C(F)(F)F)c1 [PF228] | in cytoplasm | turned off | significantly lowered | in cytoplasm | turned off | – |
| Cc1ccc2c(c1)C(=O)C1(O)CCN(c3ccccc3)C1=N2 (stereo not shown) [blebbistatin] | in cytoplasm | turned off | significantly lowered | in cytoplasm | turned off | – |
| E. coli beta-gal: E. coli beta-galactosidase reporter enzyme | – | – | – | – | – | less than 60 min |
